The values below are quoted from earlier work in patent publication US11129815B2, “Solid dispersions comprising tacrolimus” (Veloxis Pharmaceuticals A/S, priority 2003, dated 2021).

Assay in data set [1]: not given
The source holds these as a separate data set.

For `C=CC[C@@H]1/C=C(\C)C[C@H](C)C[C@H](OC)[C@H]2O[C@@](O)(C(=O)C(=O)N3CCCC[C@H]3C(=O)O[C@H](/C(C)=C/[C@@H]3CC[C@@H](O)[C@H](OC)C3)[C@H](C)[C@@H](O)CC1=O)[C@H](C)C[C@@H]2OC` [Tacrolimus], for the setting “chloroform”, the solubility in chloroform entry was “very soluble”. Also, where the note is “ethanol”, the solubility in ethanol entry is recorded as “freely soluble”. In addition, under “methanol”, the solubility in methanol result is recorded as “very soluble”. Also, the solubility in water entry (water) is reported as “practically insoluble”. In data set [1] (after oral administration), the bioavailability was no more than 20%. In addition, the “mean time-to-peak concentration (tmax)” value in data set [1] (oral administration, healthy subjects or kidney or liver transplanted patients) was 1 to 2 h.

For orientation: bioavailability means dose-corrected exposure relative to a reference, in per cent.
